Data reported in patent publication US5484803A, “Transcutaneous in vivo activation of photosensitive agents in blood” (priority 1995, dated 1996).

What was measured:
mouse blood = assay: Blood parameters immediately after light exposure (acute effect); assay type: in vivo, mice
Protocol: Blood Tests: Blood was drawn into syringes containing 50 μl of heparin (1000 units/ml saline). Blood samples (0.45 ml) from at least 1 mouse per time point were sent to the Diagnostic Laboratory at the University Hospital, University of British Columbia site, for analysis by a Coulter Counter. Blood morphology was determined on blood films prepared from selected samples by a laboratory technologist.
Fourteen mice (weight 22±1 g) were used in this study. Twelve mice were injected with 20 μg (0.9 mg/kg) of liposomal BPD (in 200 μl) and kept in the dark for 1 hour before exposure to light. The mice each were exposed to light for 30 min, 1 hour or 1.5 hours, which delivered light doses to the skin surface of 54, 108 and 162 J/cm^2, respectively. Immediately after light exposure, blood samples were obtained. At the corresponding times, blood samples were obtained from two mice injected with BPD, but not exposed to light. Two additional mice were tested one hour after injection.

L1210 cells = assay: Surviving clonogenic L1210 cells in mouse blood; assay type: in vivo, Balb/c mice; settings: for Surviving cells in blood: average of 3 mice/group
Protocol: (§1) Male mature DBA/2 and Balb/c mice were injected intravenously with P815 and L1210 cells, respectively, preincubated for 1 hour with BPD (liposomal) at 100 ng/ml. Immediately before animal injection, an additional 2 μg of BPD was added to the syringes containing cells. […] One group of mice (shaved and depilated) was exposed immediately to red light (600-900 nm) in the light box for 1.5 hours (162 J/cm^2); the other group was kept in the dark as the control.
(§2) Immediately after exposure to light, blood samples were obtained by a heart puncture under halothane anesthesia. The concentration of BPD in plasma of light-exposed and control mice was determined by fluorescence. The number of clonogenic tumor cells in mouse blood was determined by culturing blood samples in culture medium supplemented with 10% bovine serum, using a limiting dilution assay protocol.

[1] = BPD concentration in plasma of mice injected with P815 cells; assay type: in vivo, DBA/2 mice; settings: for BPD in Plasma: DBA/2 mice injected with P815 cells; for BPD in Plasma, % of dark control: P815
Protocol: Determination of BPD Concentration in Plasma: Plasma samples were obtained by centrifugation of blood collected from mice and stored frozen at -20° C. until assessment. The concentration of BPD in the samples was determined by fluorometry using a Jasco Model FP-770 (Japan Spectroscopic Co.) spectrofluorometer and a microcuvette (Far UV Quartz Cell, Starna Cells Inc.). Excitation and emission wavelengths were 439 and 699 nm, respectively. Plasma samples were diluted 20-fold with PBS containing 1% Triton® X-100 immediately before fluorescence was determined. BPD standards were prepared in 5% mouse plasma in PBS with 1% Triton® X-100. Under these conditions the relationship between the concentration of BPD and units of fluorescence was linear (correlation coefficient >0.99) for concentrations between 0.1 ng/ml and 1 μg/ml. The limit of detection was below 0.1 ng/ml sample which corresponded to 2 ng/ml plasma. […] The 699 nm fluorescence peak of BPD was virtually free from any interference.
as §1, §2

mice = assay: Tolerability of light exposure starting 15 min post-injection (lethality); assay type: in vivo, Balb/c mice
Protocol: In order to determine the level of BPD in plasma during the light treatment, the following experiment was carried out. Fourteen Balb/c mice (22±1 g of weight) were injected with liposomal BPD at 20 μg/mouse (0.9 mg/kg) in 200 μl PBS per mouse. Blood samples were obtained by heart puncture at various time intervals between 15 min and 2 hours post-injection. Exposure to light started at 15 min post-injection for some mice. The BPD concentration in plasma was determined as described above.
At 2 hours post-injection, i.e., at the time point corresponding to the end of 1 hour exposure to light (108 J/cm^2) in the first example, the plasma level of BPD was 2.44 μg/ml. At the beginning of exposure to light, in the same example, the plasma level of BPD was about 4 μg/ml. To further evaluate skin photosensitivity at these low levels, mice were exposed to light at an earlier time post-injection, i.e., at 15 min, when the level of BPD in plasma was 6.32 μg/ml.

virus-infected T cells = settings: after exposure of BPD-treated, virus-infected T cells to light; cited from earlier work
[2] = in vivo; cited from earlier work
[3] = BPD 0.87 mg/kg, light 0, 1 1/2 h post inj.
[4] = BPD 0.87 mg/kg, light 0, 2 1/2 h post inj.
[5] = BPD 0.87 mg/kg, light 0, 1 h post inj.
[6] = BPD 0.93 mg/kg, light 0, 2 h post inj.
[7] = BPD 0.93 mg/kg, light 162 J/cm^2, 2 1/2 h post inj.
[8] = BPD 0.95 mg/kg, light 54 J/cm^2, 1 1/2 h post inj.
[9] = BPD 0.95 mg/kg, light 108 J/cm^2, 2 h post inj.

benzoprophyrin derivative monoacid ring A [BPD]
acute effect on blood parameters (mouse blood; 0.9 mg/kg liposomal BPD, 54-162 J/cm^2): no acute effect on blood parameters was observed | HB (mouse blood; [3]): 117 g/L | Hct (mouse blood; [3]): 0.329 | MCV (mouse blood; [3]): 48.7 fL | PLT (mouse blood; [3]): 428 10^6 /ml | RBC (mouse blood; [3]): 6.77 10^9 /ml | WBC (mouse blood; [3]): 4.4 10^6 /ml | HB (mouse blood; [4]): 129 g/L | Hct (mouse blood; [4]): 0.372 | MCV (mouse blood; [4]): 48.5 fL | PLT (mouse blood; [4]): 447 10^6 /ml | RBC (mouse blood; [4]): 7.68 10^9 /ml | WBC (mouse blood; [4]): 3.9 10^6 /ml | HB (mouse blood; [5]): 124 g/L | Hct (mouse blood; [5]): 0.368 | MCV (mouse blood; [5]): 48.4 fL | PLT (mouse blood; [5]): 608 10^6 /ml | RBC (mouse blood; [5]): 7.61 10^9 /ml | WBC (mouse blood; [5]): 5.5 10^6 /ml | HB (mouse blood; [6]): 129 g/L | Hct (mouse blood; [6]): 0.382 | MCV (mouse blood; [6]): 49.1 fL | PLT (mouse blood; [6]): 475 10^6 /ml | RBC (mouse blood; [6]): 7.79 10^9 /ml | WBC (mouse blood; [6]): 11.4 10^6 /ml | HB (mouse blood; [7]): 116 g/L | Hct (mouse blood; [7]): 0.353 | MCV (mouse blood; [7]): 49.2 fL | PLT (mouse blood; [7]): 506 10^6 /ml | RBC (mouse blood; [7]): 7.17 10^9 /ml | WBC (mouse blood; [7]): 4.9 10^6 /ml | HB (mouse blood; [8]): 127 g/L | Hct (mouse blood; [8]): 0.363 | MCV (mouse blood; [8]): 49.9 fL | PLT (mouse blood; [8]): 613 10^6 /ml | RBC (mouse blood; [8]): 7.28 10^9 /ml | WBC (mouse blood; [8]): 7.0 10^6 /ml | HB (mouse blood; [9]): 131 g/L | Hct (mouse blood; [9]): 0.378 | MCV (mouse blood; [9]): 50.1 fL | PLT (mouse blood; [9]): 440 10^6 /ml | RBC (mouse blood; [9]): 7.53 10^9 /ml | WBC (mouse blood; [9]): 8.5 10^6 /ml | Surviving cells in blood (L1210 cells; Dark control): 234 L1210 cells/2 ml blood/mouse | Surviving cells in blood (L1210 cells; Light exposed (162 J/cm^2)): 21 L1210 cells/2 ml blood/mouse | destruction of BPD pre-loaded tumor cells (L1210 cells; whole body exposure to red light (L1210 and P815 examples)): a large number of BPD pre-loaded tumor cells were destroyed | Percent photodegraded ([1]; DBA/2, P815, 162 J/cm^2): 38% | BPD in Plasma ([1]; Dark control): 94.09 ng/mL | BPD in Plasma, % of dark control ([1]; Dark control): 100% | BPD in Plasma ([1]; Light exposed (162 J/cm^2)): 58.14 ng/mL | BPD in Plasma, % of dark control ([1]; Light exposed (162 J/cm^2)): 62% | starting plasma level of BPD lethal to mice (mice; light exposure of about 50 J/cm^2 whole body irradiation, 0.9 mg/kg, 15 min): about 6.5 μg/ml | discomfort on light exposure (mice; light from 15 min post-injection): almost immediately uncomfortable | death of mice on light exposure (mice; liposomal BPD 0.9 mg/kg, light from 15 min post-injection, 54 J/cm^2): died after 30 min of exposure | effect on virus-infected T cell membrane (virus-infected T cells): holes developed in the T cell membrane, which increased in size until the membrane completely decomposed | time of accumulation of BPD in the skin [2]: up to 5 hours
